Reference: US9738634B2, “Heterocyclic amide compound and herbicide” (SYNGENTA PARTICIPATIONS AG, priority 2013, dated 2017)

Experiments:
Type in all cases: in vivo
Details in all cases: treatment dosage 320 g/ha
barnyard grass [1] = assay: Test Example 1: weedkilling efficacy, preemergent weed treatment in the submerged state; A: barnyard grass
How it was run: (§1)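 Pots of alluvial soil were flooded to a 4 cm depth. Mixed weed seeds were sown and 2.5 leaf-stage rice seedlings transplanted. On sowing day, water-diluted emulsion was applied to the water surface (dose in g/ha). After 3 weeks at 25–30 °C, effects were rated.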

bulrush [2] = assay: Test Example 1: weedkilling efficacy, preemergent weed treatment in the submerged state; B: bulrush
How it was run: as §1

oval-leafed pondweed [3] = assay: Test Example 1: weedkilling efficacy, preemergent weed treatment in the submerged state; C: oval-leafed pondweed
How it was run: as §1

transplanted rice = assay: Test Example 1: preemergent weed treatment in the submerged state, effect on crop; a: transplanted rice
How it was run: as §1

barnyard grass [4] = assay: Test Example 2: weedkilling efficacy, growth period weed treatment in the submerged state; A: barnyard grass
How it was run: (§2)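 Weeds treated at the 1-2 leaf stage by application of diluted emulsion onto floodwater (4 cm depth, alluvial soil) at specified g/ha. Grown in greenhouse at 25 to 30° C; herbicidal effect rated three weeks after treatment.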

bulrush [5] = assay: Test Example 2: weedkilling efficacy, growth period weed treatment in the submerged state; B: bulrush
How it was run: as §2

oval-leafed pondweed [6] = assay: Test Example 2: weedkilling efficacy, growth period weed treatment in the submerged state; C: oval-leafed pondweed
How it was run: as §2

crabgrass [7] = assay: Test Example 3: weedkilling efficacy through soil treatment; D: crabgrass
How it was run: (§3)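 Crop and weed responses were judged three weeks after a uniform surface spray of the water-diluted emulsion at the given g/ha rate. Seeds sat beneath about 1.5 cm of sterilized diluvial soil, and boxes stood in a greenhouse at 25 to 30° C.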

green foxtail [8] = assay: Test Example 3: weedkilling efficacy through soil treatment; E: green foxtail
How it was run: as §3

barnyard grass [9] = assay: Test Example 3: weedkilling efficacy through soil treatment; F: barnyard grass
How it was run: as §3

wild oat [10] = assay: Test Example 3: weedkilling efficacy through soil treatment; G: wild oat
How it was run: as §3

black-grass [11] = assay: Test Example 3: weedkilling efficacy through soil treatment; H: black-grass
How it was run: as §3

Italian ryegrass [12] = assay: Test Example 3: weedkilling efficacy through soil treatment; I: Italian ryegrass
How it was run: as §3

common wind-grass [13] = assay: Test Example 3: weedkilling efficacy through soil treatment; J: common wind-grass
How it was run: as §3

Indian mallow [14] = assay: Test Example 3: weedkilling efficacy through soil treatment; K: Indian mallow
How it was run: as §3

redroot pigweed [15] = assay: Test Example 3: weedkilling efficacy through soil treatment; L: redroot pigweed
How it was run: as §3

fig-leafed goosefoot [16] = assay: Test Example 3: weedkilling efficacy through soil treatment; M: fig-leafed goosefoot
How it was run: as §3

chickweed [17] = assay: Test Example 3: weedkilling efficacy through soil treatment; N: chickweed
How it was run: as §3

directly sown rice [18] = assay: Test Example 3: soil treatment, effect on crop; b: directly sown rice
How it was run: as §3

corn [19] = assay: Test Example 3: soil treatment, effect on crop; c: corn
How it was run: as §3

soybean [20] = assay: Test Example 3: soil treatment, effect on crop; d: soybean
How it was run: as §3

wheat [21] = assay: Test Example 3: soil treatment, effect on crop; e: wheat
How it was run: as §3

beet [22] = assay: Test Example 3: soil treatment, effect on crop; f: beet
How it was run: as §3

rapeseed [23] = assay: Test Example 3: soil treatment, effect on crop; g: rapeseed
How it was run: as §3

crabgrass [24] = assay: Test Example 4: weedkilling efficacy by foliar treatment; D: crabgrass
How it was run: (§4)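 Seeds are spot-sown into sterilized diluvial soil and covered with about 1.5 cm of soil. After 14 days' greenhouse growth at 25 to 30° C, plants are sprayed on stems and leaves with diluted emulsion at the stated g/ha rate, then scored at 3 weeks.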

green foxtail [25] = assay: Test Example 4: weedkilling efficacy by foliar treatment; E: green foxtail
How it was run: as §4

barnyard grass [26] = assay: Test Example 4: weedkilling efficacy by foliar treatment; F: barnyard grass
How it was run: as §4

wild oat [27] = assay: Test Example 4: weedkilling efficacy by foliar treatment; G: wild oat
How it was run: as §4

black-grass [28] = assay: Test Example 4: weedkilling efficacy by foliar treatment; H: black-grass
How it was run: as §4

Italian ryegrass [29] = assay: Test Example 4: weedkilling efficacy by foliar treatment; I: Italian ryegrass
How it was run: as §4

common wind-grass [30] = assay: Test Example 4: weedkilling efficacy by foliar treatment; J: common wind-grass
How it was run: as §4

Indian mallow [31] = assay: Test Example 4: weedkilling efficacy by foliar treatment; K: Indian mallow
How it was run: as §4

redroot pigweed [32] = assay: Test Example 4: weedkilling efficacy by foliar treatment; L: redroot pigweed
How it was run: as §4

fig-leafed goosefoot [33] = assay: Test Example 4: weedkilling efficacy by foliar treatment; M: fig-leafed goosefoot
How it was run: as §4

chickweed [34] = assay: Test Example 4: weedkilling efficacy by foliar treatment; N: chickweed
How it was run: as §4

catchweed = assay: Test Example 4: weedkilling efficacy by foliar treatment; O: catchweed
How it was run: as §4

birds-eye speedwell = assay: Test Example 4: weedkilling efficacy by foliar treatment; p: birds-eye speedwell
How it was run: as §4

directly sown rice [35] = assay: Test Example 4: foliar treatment, effect on crop; b: directly sown rice
How it was run: as §4

corn [36] = assay: Test Example 4: foliar treatment, effect on crop; c: corn
How it was run: as §4

soybean [37] = assay: Test Example 4: foliar treatment, effect on crop; d: soybean
How it was run: as §4

wheat [38] = assay: Test Example 4: foliar treatment, effect on crop; e: wheat
How it was run: as §4

beet [39] = assay: Test Example 4: foliar treatment, effect on crop; f: beet
How it was run: as §4

rapeseed [40] = assay: Test Example 4: foliar treatment, effect on crop; g: rapeseed
How it was run: as §4

With CC1=C(c2cccnc2F)C(=O)N(C(C)(C)C(=O)Nc2cc(C(F)(F)F)cc(F)n2)CO1 [B-2-13] the “A (barnyard grass) weedkilling efficacy grade” value (barnyard grass [1]) was 5 (weed kill ratio 90% or more, (practically complete withering)), the “B (bulrush) weedkilling efficacy grade” value (bulrush [2]) was 5 (weed kill ratio 90% or more, (practically complete withering)) and the “C (oval-leafed pondweed) weedkilling efficacy grade” value (oval-leafed pondweed [3]) was 5 (weed kill ratio 90% or more, (practically complete withering)). For the same molecule, the “a (transplanted rice) effect on crop grade” value (transplanted rice) was 1 (weed kill ratio 5% or more, less than 20%), the “A (barnyard grass) weedkilling efficacy grade” value (barnyard grass [4]) was 5 (weed kill ratio 90% or more, (practically complete withering)) and the “B (bulrush) weedkilling efficacy grade” value (bulrush [5]) was 5 (weed kill ratio 90% or more, (practically complete withering)). For the same molecule, the “C (oval-leafed pondweed) weedkilling efficacy grade” value (oval-leafed pondweed [6]) was 5 (weed kill ratio 90% or more, (practically complete withering)), the “D (crabgrass) weedkilling efficacy grade” value (crabgrass [7]) was 5 (weed kill ratio 90% or more, (practically complete withering)) and the “E (green foxtail) weedkilling efficacy grade” value (green foxtail [8]) was 5 (weed kill ratio 90% or more, (practically complete withering)). For the same molecule, the “F (barnyard grass) weedkilling efficacy grade” value (barnyard grass [9]) was 5 (weed kill ratio 90% or more, (practically complete withering)), the “G (wild oat) weedkilling efficacy grade” value (wild oat [10]) was 5 (weed kill ratio 90% or more, (practically complete withering)) and the “H (black-grass) weedkilling efficacy grade” value (black-grass [11]) was 5 (weed kill ratio 90% or more, (practically complete withering)). For the same molecule, the “I (Italian ryegrass) weedkilling efficacy grade” value (Italian ryegrass [12]) was 5 (weed kill ratio 90% or more, (practically complete withering)), the “J (common wind-grass) weedkilling efficacy grade” value (common wind-grass [13]) was 5 (weed kill ratio 90% or more, (practically complete withering)) and the “K (Indian mallow) weedkilling efficacy grade” value (Indian mallow [14]) was 0 (weed kill ratio 5% or less (practically no effect)). For the same molecule, the “L (redroot pigweed) weedkilling efficacy grade” value (redroot pigweed [15]) was 4 (weed kill ratio 70% or more, less than 90%), the “M (fig-leafed goosefoot) weedkilling efficacy grade” value (fig-leafed goosefoot [16]) was 3 (weed kill ratio 40% or more, less than 70%) and the “N (chickweed) weedkilling efficacy grade” value (chickweed [17]) was 3 (weed kill ratio 40% or more, less than 70%). The “b (directly sown rice) effect on crop grade” value (directly sown rice [18]) was 5 (weed kill ratio 90% or more, (practically complete withering)), the “c (corn) effect on crop grade” value (corn [19]) was 1 (weed kill ratio 5% or more, less than 20%) and the “d (soybean) effect on crop grade” value (soybean [20]) was 0 (weed kill ratio 5% or less (practically no effect)). For the same molecule, the “e (wheat) effect on crop grade” value (wheat [21]) was 0 (weed kill ratio 5% or less (practically no effect)), the “f (beet) effect on crop grade” value (beet [22]) was 4 (weed kill ratio 70% or more, less than 90%) and the “g (rapeseed) effect on crop grade” value (rapeseed [23]) was 4 (weed kill ratio 70% or more, less than 90%). For the same molecule, the “D (crabgrass) weedkilling efficacy grade” value (crabgrass [24]) was 5 (weed kill ratio 90% or more, (practically complete withering)), the “E (green foxtail) weedkilling efficacy grade” value (green foxtail [25]) was 5 (weed kill ratio 90% or more, (practically complete withering)) and the “F (barnyard grass) weedkilling efficacy grade” value (barnyard grass [26]) was 5 (weed kill ratio 90% or more, (practically complete withering)). The “G (wild oat) weedkilling efficacy grade” value (wild oat [27]) was 3 (weed kill ratio 40% or more, less than 70%), the “H (black-grass) weedkilling efficacy grade” value (black-grass [28]) was 5 (weed kill ratio 90% or more, (practically complete withering)) and the “I (Italian ryegrass) weedkilling efficacy grade” value (Italian ryegrass [29]) was 5 (weed kill ratio 90% or more, (practically complete withering)). For the same molecule, the “J (common wind-grass) weedkilling efficacy grade” value (common wind-grass [30]) was 5 (weed kill ratio 90% or more, (practically complete withering)), the “K (Indian mallow) weedkilling efficacy grade” value (Indian mallow [31]) was 5 (weed kill ratio 90% or more, (practically complete withering)) and the “L (redroot pigweed) weedkilling efficacy grade” value (redroot pigweed [32]) was 4 (weed kill ratio 70% or more, less than 90%). For the same molecule, the “M (fig-leafed goosefoot) weedkilling efficacy grade” value (fig-leafed goosefoot [33]) was 4 (weed kill ratio 70% or more, less than 90%), the “N (chickweed) weedkilling efficacy grade” value (chickweed [34]) was 4 (weed kill ratio 70% or more, less than 90%) and the “O (catchweed) weedkilling efficacy grade” value (catchweed) was 5 (weed kill ratio 90% or more, (practically complete withering)). For the same molecule, the “P (birds-eye speedwell) weedkilling efficacy grade” value (birds-eye speedwell) was 5 (weed kill ratio 90% or more, (practically complete withering)), the “b (directly sown rice) effect on crop grade” value (directly sown rice [35]) was 3 (weed kill ratio 40% or more, less than 70%) and the “c (corn) effect on crop grade” value (corn [36]) was 4 (weed kill ratio 70% or more, less than 90%). For the same molecule, the “d (soybean) effect on crop grade” value (soybean [37]) was 4 (weed kill ratio 70% or more, less than 90%), the “e (wheat) effect on crop grade” value (wheat [38]) was 0 (weed kill ratio 5% or less (practically no effect)) and the “f (beet) effect on crop grade” value (beet [39]) was 4 (weed kill ratio 70% or more, less than 90%). The “g (rapeseed) effect on crop grade” value (rapeseed [40]) was 4 (weed kill ratio 70% or more, less than 90%).
